19 compounds from patent publication US20230250096A1, “SUBSTITUTED PHENYL-1H-PYRROLO[2,3-c] PYRIDINE DERIVATIVES” (Janssen Pharmaceutica NV, priority 2021, published 2023) can be followed below.

In data set [1] the test system is OCI-AML3 cells. As to the kind of experiment: Proliferation assay (spheroid confluence, 8 days), OCI-AML3. The settings on record: read-out: spheroid assay_OCI-AML3 IC50. In kind it is cell-based, human. The protocol: (§1) The anti-proliferative effect of menin/MLL protein/protein interaction inhibitor test compounds was assessed in human leukemia cell lines. The cell line MOLM14 harbors a MLL translocation and expresses the MLL fusion protein MLL-AF9, respectively, as well as the wildtype protein from the second allele. OCI-AML3 cells that carry the NPM1c gene mutation were also tested. […] KO-52 was used as a control cell line containing two MLL (KMT2A) wildtype alleles in order to exclude compounds that display general cytotoxic effects.
(§2) MOLM14 cells were cultured in RPMI-1640 (Sigma Aldrich) supplemented with 10% heat-inactivated fetal bovine serum (HyClone), 2 mM L-glutamine (Sigma Aldrich) and 50 μg/ml gentamycin (Gibco). KO-52 and OCI-AML3 cell lines were propagated in alpha-MEM (Sigma Aldrich) supplemented with 20% heat-inactivated fetal bovine serum (HyClone), 2 mM L-glutamine (Sigma Aldrich) and 50 μg/ml gentamycin (Gibco).
(§3) In order to assess the anti-proliferative effects, 200 MOLM14 cells, 200 OCI-AML3 cells or 300 KO-52 cells were seeded in 200 μl media per well in 96-well round bottom, ultra-low attachment plates (Costar, catalogue number 7007). Cell seeding numbers were chosen based on growth curves to ensure linear growth throughout the experiment. Test compounds were added at different concentrations and the DMSO content was normalized to 0.3%. Cells were incubated for 8 days at 37° C. and 5% CO2. Spheroid like growth was measured in real-time by live-cell imaging (IncuCyteZOOM, Essenbio, 4×objective) acquiring images at day 8. Confluence (%) as a measure of spheroid size was determined using an integrated analysis tool.
(§4) In order to determine the effect of the test compounds over time, the confluence in each well as a measure of spheroid size, was calculated. Confluence of the highest dose of a reference compound was used as baseline for the LC (Low control) and the confluence of DMSO treated cells was used as 0% cytotoxicity (High Control, HC).
(§5) Absolute IC50 values were calculated as percent change in confluence as follows:
(§6) LC=Low Control: cells treated with e.g. 1 μM of the cytotoxic agent staurosporin, or e.g. cells treated with a high concentration of an alternative reference compound
(§7) HC=High Control: Mean confluence (%) (DMSO treated cells)
(§8) % Effect=100−(100*(Sample−LC)/(HC−LC))
(§9) GraphPad Prism (version 7.00) was used to calculate the IC50. Dose-response equation was used for the plot of % Effect vs Log10 compound concentration with a variable slope and fixing the maximum to 100% and the minimum to 0%.

Data set [2] has as its system MEIS1 mRNA expression. Briefly: MEIS1 mRNA expression assay (Quantigene Singleplex) in MOLM14 cells. In kind it is cell-based, human. Particulars: 48 hours incubation. The method, boiled down:
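Read-out: MEIS1 transcript counts, background-subtracted and divided by RPL28, expressed as fold change over DMSO-treated cells, then dose-response modelled for IC50. MOLM14 cells (3,750/well) received graded compound for 48 h before lysis and QuantiGene hybridization at 55 °C.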

Data set [3] concerns the target T1, menin/MLL (terbium chelate-labeled menin, FITC-MBM1 peptide) (Homo sapiens, UniProt O00255, T541A).
T1 construct: Menin (a.a 1-610-6xhis tag, 2.3 mg/mL in 20 mM Hepes)
T1 sequence (O00255 with tags, fused parts or gaps T541A): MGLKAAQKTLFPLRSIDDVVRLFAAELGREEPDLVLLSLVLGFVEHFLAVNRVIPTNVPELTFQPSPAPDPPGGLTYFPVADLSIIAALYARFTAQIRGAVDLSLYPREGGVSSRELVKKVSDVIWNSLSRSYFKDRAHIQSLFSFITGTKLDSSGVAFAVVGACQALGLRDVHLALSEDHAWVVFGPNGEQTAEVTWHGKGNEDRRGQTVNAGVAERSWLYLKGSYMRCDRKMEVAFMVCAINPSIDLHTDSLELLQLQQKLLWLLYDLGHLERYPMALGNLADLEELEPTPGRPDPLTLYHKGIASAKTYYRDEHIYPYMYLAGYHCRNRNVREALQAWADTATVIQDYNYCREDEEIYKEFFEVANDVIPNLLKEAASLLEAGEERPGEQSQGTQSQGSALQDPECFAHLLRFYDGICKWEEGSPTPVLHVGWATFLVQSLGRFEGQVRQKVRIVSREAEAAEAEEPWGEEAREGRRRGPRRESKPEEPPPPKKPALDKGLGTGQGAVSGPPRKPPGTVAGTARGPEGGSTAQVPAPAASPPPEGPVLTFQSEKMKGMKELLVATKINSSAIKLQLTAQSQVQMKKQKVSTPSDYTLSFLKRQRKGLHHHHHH
As to the kind of experiment: Menin/MLL homogenous time-resolved fluorescence (HTRF) assay. The settings on record: 30 min incubation. In kind it is binding. The method, boiled down: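 Competition binding read by time-resolved FRET (FITC 520 nm over terbium 490 nm) after compound meets labeled menin 1-610-His […] for 30 min, then FITC-MBM1 (75 nM) for 15 min, ambient temperature, 0.5% DMSO. Eleven-point four-fold dilutions, usually starting at 10 μM, fitted to four-parameter curves for IC50.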
For orientation: Time-resolved FRET reads energy transfer from a long-lived donor to a nearby acceptor.

Data set [4] has as its system MOLM14 cells. As to the kind of experiment: Proliferation assay (spheroid confluence, 8 days), MOLM14. The settings on record: Homo sapiens, MOLM-14, MOLM14; read-out: spheroid assay_MOLM14 IC50. In kind it is cell-based, human. The protocol: as §1, §2, §3, §4, §5, §6, §7, §8, §9
Data set [5] relates to KO-52 cells. As to the kind of experiment: Proliferation assay (spheroid confluence, 8 days), KO-52 control cell line. In kind it is cell-based, human. The settings on record: Homo sapiens, read-out: spheroid assay_KO-52 IC50. As for the experimental part: as §1, §2, §3, §4, §5, §6, §7, §8, §9
Data set [6] in a line: Dynamic vapor sorption (DVS) moisture sorption analysis. In kind it is physicochemical. The protocol: Dynamic Vapor Sorption (DVS)
The moisture sorption analysis (DVS) was performed using a ProUmid GmbH & Co. KG Vsorp Enhanced dynamic vapor sorption apparatus. The moisture profile was evaluated by monitoring vapor adsorption/desorption over the range of 0 to 90% relative humidity at 25° C. The sample weight equilibrium criteria were set at <0.01% change in 45 min with minimum and maximum time of acclimation at 50 min and 120 min, respectively. The moisture profile consisted of 2 cycles of vapor adsorption/desorption.
In the humidity range of 20-90% RH, the crystalline form adsorbs and desorbs moisture slowly and reversibly up to 2.5% by mass on average. Based on DVS, the crystalline HCl salt Form, at equilibrium, can contain around 3 equivalents of water (8.5-9.5% total moisture mass) at common ambient RH of 40% to 75%.

Setting [7] is: Homo sapiens, OCI-AML-3, OCI-AML3.
Where [8] appears, read: common ambient RH of 40% to 75%.

Structures are written as SMILES. Like-named read-outs stand apart in the source and are kept apart here.

As for `Cc1cncc2c1c(C[C@@H]1CCN(CC3CCNC(=O)CC3)C1)cn2-c1ccc(F)cc1C(=O)N1CCC[C@H]1C` (single isomer, unassigned) [Compound 353b], the IC50 (usually the concentration needed to halve the response being measured) in data set [1] (OCI-AML3) was determined as 236 nM; in data set [2], 139 nM; in data set [3] it was 0.238 nM.
As to `CCN(C(=O)c1cc(F)ccc1-n1cc(CC2CN(C(C(C)C)[C@H]3C[C@H](N4C[C@H]5CN(C(C)=O)C[C@@H]5C4)C3)C2)c2c(C)cncc21)C(C)C` (mixture of isomers) [Compound 38b], the IC50 in data set [4] is 2 nM; in data set [5], 1200 nM; in data set [3], 0.013 nM.
Turning to `COCC(=O)N1CCC(C(C)N2CCC(Cc3cn(-c4ccc(F)cc4C(=O)N(C)C(C)C)c4cncc(C)c34)C2)CC1` (single isomer, unassigned) [Compound 117a], the figures for the 50% inhibitory concentration (IC50) in data set [1] (setting [7]), in data set [5] and in data set [3] were 7 nM, 1600 nM and 0.088 nM, respectively.
For `Cc1cncc2c1c(C[C@@H]1CCN(CC3CCC(=O)N(C)CC3)C1)cn2-c1ccc(F)cc1C(=O)N(C)C(C)C` (stereo partly shown) [Compound 184], the IC50 in data set [4] is 26 nM; in data set [5], 7400 nM; in data set [3], 0.06 nM.
Taken in the same sequence, the figures for `Cc1cncc2c1c(CC1CN(CC3CCOCC3)C1)cn2-c1ccc(F)cc1S(=N)(=O)C(C)C` (stereo not shown) [Compound 80] were 99 nM, 7200 nM and 0.116 nM.
Take `CNC(=O)N1CCC(CN2CC[C@H](Cc3cn(-c4ccc(F)cc4C(=O)N(C)C(C)C)c4cncc(C)c34)C2)CC1` (single isomer, unassigned) [Compound 101]: the IC50 in data set [1] (setting [7]) is 8 nM; in data set [5], 3100 nM; in data set [3], 0.041 nM.
As to `CC(=O)N1CCC(CN2CC[C@@H](Cc3cn(-c4ccc(F)cc4C(=O)N(C)C(C)C)c4cncc(C)c34)C2)CC1.Cl` [Compound 51a], the “hygroscopicity of the crystalline form (DVS change in mass plot)” value in data set [6] (0 to 90% relative humidity, 25° C., 2 cycles of adsorption/desorption) is given as “hygroscopic”. The “solid-state form change after the DVS test (XRPD compared with the starting material)” value in data set [6] (XRPD of the fraction obtained after DVS) is “No indication of a solid-state form change was observed”. Also, the “dehydration behaviour at low relative humidity” value in data set [6] (below 10% RH, to complete dehydrated state at 0% RH) is recorded as “dehydrates rapidly”. For the same compound, in data set [6] (setting [8]), the “total moisture mass at equilibrium” value is listed as 8.5-9.5% and the “water content at equilibrium” value was “around 3 equivalents of water”. Besides, the “moisture adsorbed and desorbed (slowly and reversibly), on average” value in data set [6] (humidity range of 20-90% RH, 25° C.) is “up to 2.5 % by mass”. Also, the IC50 in data set [3] is 0.024 nM.
Take `COCCN(C)C(=O)N1CCC(CN2CC[C@@H](Cc3cn(-c4ccc(F)cc4C(=O)N(C)C(C)C)c4cncc(C)c34)C2)CC1` [Compound 172]: the IC50 amounted to 18 nM in data set [2] (Homo sapiens, MOLM-14, 48 h); 11 nM in data set [4]; 0.134 nM in data set [3].
As for `CC(=O)N1CCC(CN2CC[C@@H](Cc3cn(-c4ccc(F)cc4C(=O)N4CCC(O)C4(C)C)c4cncc(C)c34)C2)CC1` (stereo partly shown) [Compound 313], the IC50 in data set [2] (Homo sapiens, MOLM-14, 48 h) is 552 nM; in data set [4], 179 nM; in data set [3] it was 0.155 nM.
The matching figures for `CC(=O)N1CCC(CN2CC[C@@H](Cc3cn(-c4ccc(F)cc4C(=O)N(CCO)C(C)C)c4cncc(C)c34)C2)CC1` [Compound 326]: 23 nM, 16 nM and 0.038 nM.
The matching figures for `Cc1cncc2c1c(C[C@@H]1CCN(CC3CCOCC3)C1)cn2-c1ccc(F)cc1C(=O)N1CCC[C@@]1(C)CO` (single isomer, unassigned) [Compound 362b]: 19 nM, 12 nM and 0.067 nM.
`CCN(C(=O)c1cc(F)ccc1-n1cc(CC2CN(C(C(C)C)[C@H]3C[C@@H](N4CCN(C(C)=O)CC4)C3)C2)c2c(C)cncc21)C(C)C` (stereo partly shown) [Compound 35a]: the IC50 in data set [2] (Homo sapiens, MOLM-14, 48 h) was determined as 21 nM; in data set [5], 1500 nM; in data set [3], 0.059 nM.
Regarding `CN=S(=O)(c1cc(F)ccc1-n1cc(CC2CN(CC3CCOCC3)C2)c2c(C)cncc21)C(C)C` (stereo not shown) [Compound 79], the IC50 in data set [4] came to 92 nM; in data set [5], 9400 nM; in data set [3], 0.168 nM.
`CNC(=O)[C@H]1CC[C@H](CN2CC([C@@H](C)c3cn(-c4ccc(F)cc4C(=O)N(C)C(C)C)c4cncc(C)c34)C2)CC1` (single isomer, unassigned) [Compound 164a]: the IC50 in data set [2] (Homo sapiens, MOLM-14, 48 h) came out at 249 nM; in data set [4], 154 nM; in data set [3], 0.209 nM.
For `Cc1cncc2c1c(C[C@@H]1CCN(CC3CCOCC3)C1)cn2-c1ccc(F)cc1[S@@](=N)(=O)C(C)C` (single isomer, unassigned) [Compound 78c], the IC50 in data set [2] (Homo sapiens, MOLM-14, 48 h) is 416 nM; in data set [4], 200 nM; in data set [3] it was 0.382 nM.
`CN=[S@@](=O)(c1cc(F)ccc1-n1cc(CC2CN(CC3CCOCC3)C2)c2c(C)cncc21)C(C)C` (single isomer, unassigned) [Compound 166b]: the IC50 in data set [2] (Homo sapiens, MOLM-14, 48 h) turned out to be 256 nM; in data set [4] it was 120 nM; in data set [3], 0.226 nM.
Regarding `CON(C)C(=O)N1CCC(CN2CC[C@@H](Cc3cn(-c4ccc(F)cc4C(=O)N(C)C(C)C)c4cncc(C)c34)C2)CC1` [Compound 173], the IC50 in data set [2] (Homo sapiens, MOLM-14, 48 h) came out at 32 nM; in data set [4], 5 nM; in data set [3] it was 0.056 nM.
On to `CC(=O)N1CC([C@@H](C)N2CC[C@@H](Cc3cn(-c4ccc(F)cc4C(=O)N(C)C(C)C)c4cncc(C)c34)C2)C1` (single isomer, unassigned) [Compound 175], for which the IC50 in data set [2] (Homo sapiens, MOLM-14, 48 h) is about 1050 nM; in data set [4] it was 234 nM; in data set [3], 1.33 nM.
Turning to `Cc1cncc2c1c(C[C@H]1CCN(CC3CCC(=O)NC3)C1)cn2-c1ccc(F)cc1C(=O)N(C)C(C)C` (mixture of isomers) [Compound 88], the IC50 amounted to 140 nM in data set [2] (Homo sapiens, MOLM-14, 48 h); 96 nM in data set [4]; 0.093 nM in data set [3].
